Results from US9725445B2, “Cycloalkyl nitrile pyrazolo pyridones as Janus kinase inhibitors” (Merck Sharp & Dohme Corp., priority 2013, dated 2017).

The molecules below were run against JAK1 (Homo sapiens (Human), UniProt P23458) (assay: Jak biochemical HTRF assay, JAK1). Conditions: HTRF biochemical assay, recombinant GST-tagged catalytic domain; read-out: JAK1 IC50.
Method: Jak Biochemical HTRF Assay Protocol
The ability of compounds to inhibit the activity of JAK1, JAK2, JAK3, and Tyk2 was measured using a recombinant purified GST-tagged catalytic domain for each enzyme (Invitrogen JAK1 #M4290, JAK2 #M4290, JAK3 #M4290, Tyk2 #M4290) in an HTRF format biochemical assay. […] The basic assay protocol is as follows: First, 250 nL of diluted compounds in DMSO were dispensed into the wells of a dry 384-well Black plate (Greiner #781076) using a Labcyte Echo 555 acoustic dispenser. Subsequent reagent additions employed an Agilent Bravo. […] After equilibration, 2 μL of 10×ATP in 1× assay buffer was added to initiate the kinase reaction and the plates were shaken and then incubated at room temperature for 120 minutes. […] Plates were shaken and centrifuged and then incubated 60 minutes at room temperature and then read on a Perkin Elmer Envision (λex=337 nm, λem=665 and 615 nm, TRF delay time=20 μs). HTRF signal=10,000*665 nm reading/615 nm reading. After normalization to untreated controls, the percent inhibition of the HTRF signal at each compound concentration was calculated. The plot of percent inhibition versus the log of compound concentration was fit with a 4-parameter dose response equation to calculate IC50 values.
Final Reaction Conditions were:
Examples of the instant invention were evaluated in JAK1 and JAK2 in vitro binding assays.

JAK1, sequence (P23458 875-1153): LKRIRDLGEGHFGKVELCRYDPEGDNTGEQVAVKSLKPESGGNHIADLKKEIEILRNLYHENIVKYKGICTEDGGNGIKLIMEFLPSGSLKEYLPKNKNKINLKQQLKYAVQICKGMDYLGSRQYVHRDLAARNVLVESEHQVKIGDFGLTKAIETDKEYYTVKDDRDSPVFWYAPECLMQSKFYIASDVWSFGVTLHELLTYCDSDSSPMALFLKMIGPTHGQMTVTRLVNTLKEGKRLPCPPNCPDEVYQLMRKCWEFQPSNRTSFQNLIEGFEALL

Compound | IC50
CC(C)(CCO)N1Cc2cc(Nc3nn([C@H]4CCCC[C@@H]4C#N)c4cc[nH]c(=O)c34)ccc2S1(=O)=O [Example 3-81, (1S,2S)-2-(3-{[2-(3-hydroxy-1,1-dimethylpropyl)-1,1-dioxido-2,3-dihydro-1,2-benzisothiazol-5-yl]amino}-4-oxo-4,5-dihydro-1H-pyrazolo[4,3-c]pyridin-1-yl)cyclohexanecarbonitrile] | 0.055 nM
CC1c2cc(Nc3nn([C@H]4CCCC[C@@H]4C#N)c4cc[nH]c(=O)c34)ccc2S(=O)(=O)N1CC(F)(F)F (single isomer, unassigned) [Example 3-129, (1S,2S)-2-(3-(((R or S)-3-methyl-1,1-dioxido-2-(2,2,2-trifluoroethyl)-2,3-dihydrobenzo[d]isothiazol-5-yl)amino)-4-oxo-4,5-dihydro-1H-pyrazolo[4,3-c]pyridin-1-yl)cyclohexanecarbonitrile] | 1.1 nM
CS(=O)(=O)c1ccc(Nc2nn([C@H]3CCC[C@@H]3C#N)c3cc[nH]c(=O)c23)cc1 [Example 3-94, (1S,2S)-2-(3-{[4-(methylsulfonyl)phenyl]amino}-4-oxo-4,5-dihydro-1H-pyrazolo[4,3-c]pyridin-1-yl)cyclopentanecarbonitrile] | 0.12 nM
CC(C)(C)N1Cc2cc(Nc3nn([C@@H]4CCCCC[C@H]4C#N)c4cc[nH]c(=O)c34)ccc2S1(=O)=O (single isomer, unassigned) [Example 3-177, (1R,2R or 1S,2S)-2-{3-[(2-tert-butyl-1,1-dioxido-2,3-dihydro-1,2-benzisothiazol-5-yl)amino]-4-oxo-4,5-dihydro-1H-pyrazolo[4,3-c]pyridin-1-yl}cycloheptanecarbonitrile] | 0.046 nM
CC(C)(C)N1Cc2cc(Nc3nn([C@H]4CCCCC[C@H]4C#N)c4cc[nH]c(=O)c34)ccc2S1(=O)=O (single isomer, unassigned) [Example 3-178, (1R,2S or 1S,2R)-2-{3-[(2-tert-butyl-1,1-dioxido-2,3-dihydro-1,2-benzisothiazol-5-yl)amino]-4-oxo-4,5-dihydro-1H-pyrazolo[4,3-c]pyridin-1-yl}cycloheptanecarbonitrile] | 0.84 nM

The next lines start with the values.

IC50 | Compound
0.81 nM | CC1NCc2cc(Nc3nn([C@H]4CCCC[C@@H]4C#N)c4cc[nH]c(=O)c34)ccc21 (mixture of isomers) [Example 12-3, (1S,2S)-2-(3-{[(1S and 1R)-1-methyl-2,3-dihydro-1H-isoindol-5-yl]amino}-4-oxo-4,5-dihydro-1H-pyrazolo[4,3-c]pyridin-1-yl)cyclohexanecarbonitrile]
97 nM | C[C@H](N[C@H]1CC[C@@H](n2nc(Nc3ccc(C(F)(F)F)cc3)c3c(=O)[nH]ccc32)[C@H](C#N)C1)C1CC1 [Example 5-13, (1R,2R,5S)-5-(((S)-1-cyclopropylethyl)amino)-2-(4-oxo-3-((4-(trifluoromethyl)phenyl)amino)-4,5-dihydro-1H-pyrazolo[4,3-c]pyridin-1-yl)cyclohexanecarbonitrile]
0.36 nM | CC(C)C(c1ccc(Nc2nn([C@H]3CCCC[C@@H]3C#N)c3cc[nH]c(=O)c23)cc1)n1nccn1 (single isomer, unassigned) [Example 15-30, (1S,2S)-2-[3-({4-[(1S or 1R)-2-methyl-1-(2H-1,2,3-triazol-2-yl)propyl]phenyl}amino)-4-oxo-4,5-dihydro-1H-pyrazolo[4,3-c]pyridin-1-yl]cyclohexanecarbonitrile]
0.076 nM | COCC(C)(C)CN1Cc2cc(Nc3nn([C@@H]4CCCCC[C@H]4C#N)c4cc[nH]c(=O)c34)ccc2S1(=O)=O (single isomer, unassigned) [Example 15-46, (1R,2R or 1S,2S)-2-(3-{[2-(3-methoxy-2,2-dimethylpropyl)-1,1-dioxido-2,3-dihydro-1,2-benzisothiazol-5-yl]amino}-4-oxo-4,5-dihydro-1H-pyrazolo[4,3-c]pyridin-1-yl)cycloheptanecarbonitrile]
